The text below walks through data of patent publication US20220296583A1, “COMPOSITIONS AND METHODS FOR TREATMENT OF OVARIAN AND BREAST CANCER” (Board of Regents, The University of Texas System, priority 2021, published 2022).

Where two headings read alike, the source gives them in different places.

Assay [1] deals with SIK2-expressed SKOV3 cells. Nature of the assay: Cell viability assessment of SKOV3. In kind it is cell-based.
Assay [2] concerns SKOv3, OVCAR8, HCC5032, or MDA-MB-231 cells. As to the kind of experiment: DNA damage: γ-H2AX staining and comet assay with olaparib. The format is cell-based. To be noted: SKOv3, OVCAR8, HCC5032, MDA-MB-231.
Method: Cells were trypsinized and resuspended at 2×10^5/mL in cold PBS without Ca^2+ and Mg^2+. Cells were mixed with pre-warmed comet agarose at 1:10 (v/v) ratio. 10 uL of cell agarose mixture was plated onto comet slides pre-coated with 75 uL of agarose and chilled at 4° C. for 15 min to set. Cells were lysed in 25 mL of Lysis buffer at 4° C. for 2 hrs and washed with alkaline solution (pH 10). Comet slides were electrophoresed in cold alkaline solution at 20V for 15 min. Slides were rinsed with water and dried in 70% ethanol for 5 min. Slides were then stained with Vista Green DNA dye and viewed using an Olympus epifluorescence microscope with a FITC filter. Images were captured using a 20× objective. […] Experiments were run in triplicate and Olive Tail Moment was measured using CaspLab1.2.3β2 software (CaspLab.com). Olive Tail Moment=Tail DNA %×Tail Length. 50-200 Cells were measured for each treatment and experiments were repeated twice independently to ensure reproducibility.
Cells on 22×22 mm coverslips were fixed in 4% formaldehyde in PBS (Thermo Fisher, J19943-K2) and permeabilized with 0.1% Triton X-100 (Sigma, X100) in PBS for 15 min. Cells were blocked with 5% BSA in PBS for 30 min and then stained with antibody overnight at 4° C., followed by secondary antibody and DAPI for 1 hr. […] After 24-hrs incubation, cells were fixed in 4% formaldehyde in PBS. Cells were stained as described above. […] DNA damage visualized by γ-H2AX staining was evaluated by counting nuclear γ-H2AX puncta in each cell. […] After 8 hrs incubation, cells were fixed in 4% formaldehyde in PBS. Cells were stained as described above. Images were captured using an Olympus IX71 microscope and nuclear γ-H2AX puncta in each cells were counted using with Olympus CellSens Dimension software. HDAC5 (CST20458) and γ-H2AX (CST2577) antibodies were purchased from Cell Signaling Technology. Experiments were repeated twice independently to ensure reproducibility and 50-200 cells were counted for each treatment.
Assay [3] deals with HDAC4 (Ser246)/HDAC5 (Ser256)/HDAC7 (Ser155). Nature of the assay: Western analysis of HDAC4/5/7 phosphorylation. The format is cell-based. Particulars: 4 μM, 24 hrs; nearly all the cell lines tested. The protocol: (§1) To identify the mechanism(s) by which SIK2 inhibition decreases DNA DBS repair, it was tested whether SIK2 inhibitors decrease the phosphorylation of class IIa HDACs, which control its nuclear cytoplasmic shuttling and consequently its association with DNA. […] Next, it was investigated whether SIK2 inhibitors increase nuclear localization of HDAC5. SIK2 inhibition increased nuclear localization of HDAC5 judged by increasing nuclear florescence intensity (FIG. 7B and FIG. 8A) and the nuclear fraction of HDAC5 expression (FIG. 8B). […] Therefore, it was hypothesized that SIK2 inhibition may block MEF transcription factor activity. […] Next, it was examined whether SIK2 regulation of MEF2 activity was HDAC4/5-dependent, increasing its binding to MEF2D protein. […] These observations are consistent with the hypothesis that SIK2 inhibition increases nuclear localization of HDAC4/5, blocking MEF2 transcription (FIG. 8E).
Cells were incubated with and without treatment for the intervals indicated and then cells were incubated in lysis buffer (50 mM Hepes, pH 7.0, 150 mM NaCl, 1.5 mM MgCl2, 1 mM EGTA, 10, 10% glycerol, 1% Triton X-100, 50 mM NaF, 1 mM Na3VO4 1 mM PMSF, 10 μg/mL leupeptin and10 μg/mL aprotinin) on ice for 30 min. […] The protein concentration was assessed using a bicinchoninic acid (BCA) protein assay (Thermo Scientific, 23228). […]

The subject of the next assay is NOE72. Nature of the assay: CellTiter-Glo cell viability dose response. In kind it is cell-based. To be noted: 96 h. The protocol: (§2) Luminescence was measured on a Synergy2 microplate reader (BioTek) after 10 min of shaking. Dose-response experiments were plotted and IC50 values were calculated using nonlinear curve fitting with normalized response and variable slope by GraphPad Prism 8. Drug interaction of the two-drug combination using a constant ratio were processed and a Combination Index (CI) was calculated using CalcuSyn 2.0 (BIOSOFT). CI<1 indicates synergism, CI=1 indicates additive effect and CI>1 indicates antagonism.

The subject of a further assay is OV90. Nature of the assay: CellTiter-Glo cell viability dose response. In kind it is cell-based. Particulars: Homo sapiens, OV-90, 96 h. How it is done:
as §2

In the next assay the test system is SKOv3. As to the kind of experiment: CellTiter-Glo cell viability dose response. The format is cell-based. To be noted: Homo sapiens, SK-OV-3, 96 h. The protocol: as §2
The next assay relates to HMEC16620. Nature of the assay: CellTiter-Glo cell viability dose response. The format is cell-based. Particulars: Homo sapiens, 96 h. How it is done: as §2
A further assay deals with IGROV1. Nature of the assay: CellTiter-Glo cell viability dose response. In kind it is cell-based. To be noted: Homo sapiens, IGROV-1, 96 h. How it is done: as §2
The subject of the next assay is OVCAR8. Nature of the assay: CellTiter-Glo cell viability dose response. The format is cell-based. Particulars: Homo sapiens, OVCAR-8, 96 h. How it is done: as §2
Another assay has as its system MDA-MD-231. As to the kind of experiment: CellTiter-Glo cell viability dose response. In kind it is cell-based. Particulars: Homo sapiens, 96 h. The protocol: as §2
The next assay has as its system OVCAR3. Nature of the assay: CellTiter-Glo cell viability dose response. The format is cell-based. To be noted: Homo sapiens, OVCAR-3, 96 h. How it is done:
as §2

The test system of another assay is OAW28. Nature of the assay: CellTiter-Glo cell viability dose response. The format is cell-based. Particulars: Homo sapiens, OAW-28, 96 h. How it is done:
as §2

A further assay deals with BT549. Nature of the assay: CellTiter-Glo cell viability dose response. The format is cell-based. To be noted: Homo sapiens, BT-549, 96 h. How it is done: as §2
A further assay concerns HCC5032. Nature of the assay: CellTiter-Glo cell viability dose response. Particulars: 96 h. In kind it is cell-based. The protocol: as §2
The subject of the next assay is DOV13. As to the kind of experiment: CellTiter-Glo cell viability dose response. To be noted: Homo sapiens, DOV13, 96 h. In kind it is cell-based. How it is done:
as §2

The subject of another assay is MDA-2774. Nature of the assay: CellTiter-Glo cell viability dose response. In kind it is cell-based. To be noted: Homo sapiens, 96 h. How it is done: as §2
The next assay relates to OC316. Nature of the assay: CellTiter-Glo cell viability dose response. In kind it is cell-based. To be noted: Homo sapiens, 96 h. How it is done: as §2
In a further assay the test system is MEF2 promoter activity. Nature of the assay: MEF2 luciferase reporter assay. Particulars: ovarian and breast cancer cell lines; time- and dose-dependent. In kind it is cell-based. The protocol: as §1
The next assay has as its system SKOv3 cells. To be noted: RNA-seq.
For assay [4], the system named is SKOv3 xenograft. As to the kind of experiment: SKOv3 subcutaneous xenograft, SIK2 inhibitor and olaparib. The format is in vivo, mice. Particulars: SKOv3 s.c.; oral, five times per week, 4 weeks.
In the next assay the test system is MDA-MB-231 xenograft. Nature of the assay: MDA-MB-231 mammary fat pad xenograft, Compound B and olaparib. In kind it is in vivo, mice. Particulars: 50 mg/kg, oral, 5 weeks.
Assay [5] concerns SKOv3 xenograft. As to the kind of experiment: SKOv3 subcutaneous xenograft, Compound B, carboplatin and paclitaxel. The format is in vivo, mice. To be noted: SKOv3 s.c.; 6 weeks; Compound B 40 mg/kg. The protocol:
After treatment as indicated in (A) for three weeks, mice were weighed, and intraperitoneal nodules were excised and weighed. […] Mice were treated with single, double, or triple agents for 6 weeks. Tumor was measured once a week until the tumor burden in control group reached maximum allowance. The graphs indicate the mean±standard deviation. Statistical significance is indicated by *p<0.05, **p<0.01, and ***p<0.0001.
Six-week-old female athymic nu/nu mice were purchased from Envigo. Experiments were reviewed and all procedures were performed according to an animal protocol approved by the Institutional Animal Care and Use Committee of UT MD Anderson Cancer Center. […] Carboplatin was administrated i.p. once a week at a dose of 25 mg/kg. […] Carboplatin was treated at a dose of 30 mg/kg once a week for six weeks. […] At end of six weeks, the mice were sacrificed by CO2. The mice were dissected immediately after death and the tumors were collected and weighed.
OVCAR8 cells were injected intraperitoneally (ip) into nu/nu mice. Treatment started 7 days post injection. […] At the conclusion of the treatment, the mice were sacrificed, and the tumor was dissected and weighed (FIG. 23A). […] The tumor volume was measured at indicated time points (FIG. 23D).

Another assay deals with A2780-PAR. As to the kind of experiment: Cell viability, cisplatin-sensitive sub-line. In kind it is cell-based. Particulars: 96 h. How it is done:
(§3) Cisplatin-resistant A2780-CP20 and cisplatin-sensitive A27801 PAR sub-lines were plated at a density of 2000/well in 96-well plates, then treated with different concentrations of carboplatin for 96 h as indicated. Cell viability was measured with a bioluminescence assay and the IC50 was calculated. […] (C, D).
(§4) Cells were seeded in 6 replicates in black-walled and clear-bottomed 96-well plates and incubated overnight. […] The CellTiter-Glo luminescent cell viability assay (Promega) was used to evaluate the effect of treatment on cancer growth. This experiment was performed several times to optimize the concentration. […] GraphPad Prism 8 was used to generate growth curves and calculated IC50. CalcuSyn was used to evaluate additive or synergistic interactions, a combination Index (CI value).
(§5) Platinum resistance is commonly seen in ovarian cancer patients with recurrent disease. There is currently no standard chemotherapy for platinum-resistant recurrence. Targeting DNA damage and repair is an attractive therapeutic approach in platinum-resistant ovarian cancer.

Another assay relates to A2780-CP20. Nature of the assay: Cell viability, cisplatin-resistant sub-line. In kind it is cell-based. To be noted: 96 h. How it is done:
as §3, §4, §5

Method for MDA-MB-231 xenograft: Forty female nu/nu mice were injected with 0.8×10^6 MDA-MB-231 cells into their fourth mammary fat pads. […] Tumors were measured every week as noted above (SKOv3 xenograft models).

For the compound `N.N.[Cl][Pt][Cl]` [Cisplatin, cisplatin], the IC50 is 16.8 µM in assay [1] (SK-OV-3, Table 9, cisplatin combinations) and 17 µM in [1] (SKOV3, Table 6, FIG. 26, top locked at 100).

`COc1c(F)cc(F)cc1-c1c[nH]c2ncc(-c3cnn(C4CCNCC4)c3)cc12` [Compound A, 3-(3,5-difluoro-2-methoxyphenyl)-5-(1-(piperidin-4-yl)-1H-pyrazol-4-yl)-1H-pyrrolo[2,3-b]pyridine]: in assay [2], the “levels of γ-H2AX and tailed DNA” value was “modestly increased”. For the same compound, the “phosphorylation of HDAC4/HDAC5/HDAC7” value in [3] is “significantly decreased”. The half-inhibitory concentration (IC50) is 5.75 µM with NOE72; 3.87 µM in the assay on OV90; 1.23 µM in the assay with SKOv3; 3.6 µM in the assay on HMEC16620; 1.08 µM with IGROV1; 1.4 µM in the assay on OVCAR8. For the same compound, the IC50 in the assay with MDA-MD-231 amounted to 2.37 µM; in the assay on OVCAR3 it was 2.83 µM; in the assay with OAW28, 1.71 µM; in the assay on BT549 it was 2.02 µM; in the assay on HCC5032 it was 2.24 µM; with DOV13, 2.81 µM. The IC50 is 1.08 µM in the assay on MDA-2774 and 1.26 µM with OC316.

Turning to `O=C(c1cc(Cc2n[nH]c(=O)c3ccccc23)ccc1F)N1CCN(C(=O)C2CC2)CC1` [Olaparib, olaparib], the MEF2 promoter activity entry in the assay on MEF2 promoter activity was “did not”. In addition, the “levels of γ-H2AX and tailed DNA” value in [2] was “modestly increased”. Also, the IC50 is 6.38 µM in the assay on NOE72; 8.36 µM with OV90; 55.5 µM in the assay with SKOv3; 1.2 µM in the assay on HMEC16620; 2.83 µM with IGROV1; 6.4 µM in the assay with OVCAR8. For the same compound, the IC50 in the assay on MDA-MD-231 came out at 4.47 µM; in the assay with OVCAR3, 3.79 µM; in the assay with OAW28, 3.66 µM; in the assay with BT549 it was 13.7 µM; in the assay with HCC5032, 14.5 µM; in the assay on DOV13 it was 32.2 µM. The IC50 was 6.29 µM with MDA-2774 and 4.91 µM in the assay on OC316. For the same compound, in the assay on SKOv3 cells, the “numbers of transcripts up or down-regulated by ≥2-fold” value is given as 3. For the same compound, the tumor growth entry in the assay with SKOv3 xenograft [4] is recorded as “significantly inhibited tumor growth”. The “tumor burden / tumor volume” value with MDA-MB-231 xenograft is “remained unchanged”.

For the compound `CC(=O)O[C@H]1C(=O)[C@@]2(C)[C@H]([C@H](OC(=O)c3ccccc3)[C@]3(O)C[C@H](OC(=O)[C@H](O)[C@@H](NC(=O)c4ccccc4)c4ccccc4)C(C)=C1C3(C)C)[C@]1(OC(C)=O)CO[C@@H]1C[C@@H]2O` [Paclitaxel, paclitaxel], in the assay on SKOv3 xenograft [5], the “tumor growth (tumor volume)” value is “significantly inhibited tumor growth”. Also, the 50% inhibitory concentration (IC50) in assay [1] (Homo sapiens, SK-OV-3, SK-OV-3, Table 7, paclitaxel combinations) is 0.127 µM; in assay [1] (Homo sapiens, SK-OV-3, SKOV3, Table 5, FIG. 25) it was 0.039 µM; in [1] (Homo sapiens, SK-OV-3, SKOV3, Table 6, FIG. 26), 0.127 µM. Besides, the “Test/Control (%) at drug Concentration [μM]” value in the assay with MAXF Hs 578T (Table 14, 1.0E+00 μM) was found to be 38%; in the assay on MAXF Hs 578T (Table 14, 1.0E−01 μM), 44%; with MAXF Hs 578T (Table 14, 1.0E−02 μM), 89%; in the assay on MAXF Hs 578T (Table 14, 3.2E−01 μM), 42%; in the assay with MAXF Hs 578T (Table 14, 3.2E−02 μM) it was 52%; with MAXF MDA-MB-231 (Table 14, 1.0E+00 μM) it was 10%. Moreover, the “Test/Control (%) at drug Concentration [μM]” value came out at 17% in the assay on MAXF MDA-MB-231 (Table 14, 1.0E−01 μM); 45% with MAXF MDA-MB-231 (Table 14, 1.0E−02 μM); 110% in the assay with MAXF MDA-MB-231 (Table 14, 1.0E−03 μM); 14% in the assay on MAXF MDA-MB-231 (Table 14, 3.2E−01 μM); 24% in the assay with MAXF MDA-MB-231 (Table 14, 3.2E−02 μM).

Take `N.N.O=C([O-])C1(C(=O)[O-])CCC1.[Pt+2]` [carboplatin]: the “tumor growth (tumor volume)” value with SKOv3 xenograft [5] is given as “significantly inhibited tumor growth”. In addition, the IC50 in the assay on A2780-PAR is 1.1 µM; in the assay with A2780-CP20, 34.9 µM.
